From patent US5356796A, “Repressor protein and operon for regulating expression of polypeptides and its use in the preparation of 2,2-dialkyglycine decarboxylase of Pseudomonas cepacia” (priority 1992, dated 1994)

Assays:
[1] = target: Pseudomonas cepacia 2,2-dialkylglycine decarboxylase (Burkholderia cepacia, UniProt P16932); settings: isovaline isomer as substrate of the decarboxylase; read-out: Michaelis constant; cited from earlier work
[2] = tested on: dialkylglycine decarboxylase gene expression in E. coli DH5α/pKBD6; assay: Time course of dialkylglycine decarboxylase induction in E. coli DH5α/pKBD6; assay type: cell-based, Escherichia coli; settings: DH5α/pKBD6 in minimal medium with ammonium chloride; amino acid added during growth (10 mM in FIG. 7 legend, 8.0 mM in method)
Procedure: FIG. 7 depicts induction of dialkylglycine decarboxylase activity in E. coli DH5a/pKBD6 cultures by various amino acids. One-liter cultures containing minimal salts, glucose, NH4 Cl, and tetracycline (12 μg/ml) were supplemented at the indicated time with amino acid (final concentration, 10 mM). Absorbance of the culture was measured at 600 nm in a 1-cm cell ( -- ). Each activity assay contained 60 absorbance units of resuspended bacteria (.largecircle.--.largecircle.)
Radiochemical Dialkylglycine Decarboxylase Assay--Dialkylglycine decarboxylase activity was measured under zero-order conditions essentially as described (Dinwoodie and Boeker, 1979). Assay reactions contained 500 μL of protein solution (100 mM MOPS^1, (MOPS=3-(N-morphalino)propanesulfonic acid), 25 mM KCl, 0.05 mM PLP, (PLP=pyridoxal 5'-phosphate), pH 7.00 or 30 mM Tris, 40 mM KCl, 0.05 mM PLP pH 7.90) plus 0.045 mL of substrate solution (245 mM 2-methylalanine, 62 mM sodium pyruvate, containing 0.25 μCi [1-^14 C]2-methylalanine)- Assays were carried out in stoppered 12×220 mm test tubes containing a folded 10×25 mm piece of filter paper soaked with 24 μL of 2:1 ethanolamine/2-ethoxyethanol- After incubation at room temperature (25° C.) for one or two hours, the reaction was quenched with 200 μL of 50% trichloroacetic acid, ^14 CO2 was collected for one hour, and the filter paper was counted in 10 mL of Beckman Ready Safe cocktail. One unit is defined as the amount of activity required to produce 1 nanomole of CO2 per min. at 25° C.
Time Course of Dialkylglycine Decarboxylase Induction--An 800-mL portion of M9 containing 12 μg/mL tetracycline in a 6-L conical flask was inoculated with DH5α/pKBD6. The flask was shaken at 37° C. and the absorbance at 600 nm was measured periodically. At various times during cell growth aliquots containing 60. AU's (absorbance units) of cells were removed, stored on ice, concentrated by centrifugation, and resuspended in 1.0 mL MOPS buffer. Aliquots of 0.50 mL were assayed for dialkylglycine activity. After the first two samples were taken, an amino acid (2-methylalanine, R,S-isovaline, D-alanine, or L-alanine) was added to a final concentration of 8.0 mM and sampling was continued.

[3] = target: T1, Pseudomonas cepacia 2,2-dialkylglycine decarboxylase repressor (dgdR gene product, SEQ ID NO: 11) bound to operators O1 and O2 (Burkholderia cepacia, UniProt P16931); assay: Gel mobility shift assay of dgdR repressor with the 788 bp DNA fragment in presence of 2-methylalanine; assay type: binding; settings: 20 mM 2-methylalanine in gel; 788 bp fragment containing O1 and O2
T1 construct: crude extract or ammonium sulfate fraction; gel shift on dgd operator DNA
T1 sequence (P16931 whole entry, the tested form may be a part): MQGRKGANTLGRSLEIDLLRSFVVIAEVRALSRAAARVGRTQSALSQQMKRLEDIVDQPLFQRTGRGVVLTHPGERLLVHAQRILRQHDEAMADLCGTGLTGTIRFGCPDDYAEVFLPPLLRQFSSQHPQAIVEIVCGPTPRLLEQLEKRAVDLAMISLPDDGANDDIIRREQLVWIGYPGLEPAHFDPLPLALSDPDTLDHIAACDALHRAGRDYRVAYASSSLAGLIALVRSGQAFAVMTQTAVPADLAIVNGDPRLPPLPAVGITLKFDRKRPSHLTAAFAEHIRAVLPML
Procedure: Repressor Preparation--A 100 ml portion of LB medium containing about 50 μg/ml carbenicillin was inoculated with about a 2 ml overnight culture of JM109/pJKDGDR1 and was grown at about 37° C. to an OD600 of 1. IPTG was added to a final concentration of about 1 mM, the culture was shaken another 4 h, and then was pelleted by centrifugation at 4000 xg at about 4° C. The pellet was resuspended in 5 ml buffer (50 mM TrisHCl pH 7.9, 50 mM KCl), sonicated 3×0.5 min at about 0° C., and centrifuged for about 15 min at about 12,000 xg at about 4° C. Aliquots of the supernatant were used for gel shift assays and SDS-PAGE. Other aliquots were partially purified by selective precipitation with 1.0 M ammonium sulfate. Protein concentration was determined by the dye binding method of Read and Northcote (1981). […]
Gel Shift Assays--A 10 μl assay mixture contained about 50 ng of DNA fragment, 1.0 μg of repressor extract (or 1.0 μg of extract from a JM109 strain containing a dgdA-pBTac1 recombinant), 10 mM TrisHCl pH 7.6, 5 mM sodium acetate, 2.5% glycerol, and 0.005% bovine serum albumin. The mixture was incubated 5 to 20 min at room temperature, about 3 μl of 50% sucrose/0.1% bromophenol blue was added, and the entire sample was analyzed by electrophoresis in a 1 mm 4% polyacrylamide gel containing about […] Tris, 380 mM glycine, 4 mM EDTA, and 2.5% glycerol. […]

[4] = tested on: dialkylglycine decarboxylase gene (dgdA) expression controlled by the P. cepacia repressor, in E. coli JM109/pGEM7Z14; assay type: cell-based, Escherichia coli; settings: 20 mM amino acid in culture medium
Procedure: Induction Stereochemistry--The induction phenomenon was further investigated by surveying the inducing ability of the separate isovaline stereoisomers and 15 other structurally similar amino acids (Table 3).
In some experiments 20 mM 2-methylalanine or other amino acid or 1 mg/mL IPTG was added to the growth medium. […] Protein concentrations were determined by dye binding (Read and Northcote, 1981).

Pseudomonas cepacia 2,2-dialkylglycine decarboxylase, sequence (P16932 2-433): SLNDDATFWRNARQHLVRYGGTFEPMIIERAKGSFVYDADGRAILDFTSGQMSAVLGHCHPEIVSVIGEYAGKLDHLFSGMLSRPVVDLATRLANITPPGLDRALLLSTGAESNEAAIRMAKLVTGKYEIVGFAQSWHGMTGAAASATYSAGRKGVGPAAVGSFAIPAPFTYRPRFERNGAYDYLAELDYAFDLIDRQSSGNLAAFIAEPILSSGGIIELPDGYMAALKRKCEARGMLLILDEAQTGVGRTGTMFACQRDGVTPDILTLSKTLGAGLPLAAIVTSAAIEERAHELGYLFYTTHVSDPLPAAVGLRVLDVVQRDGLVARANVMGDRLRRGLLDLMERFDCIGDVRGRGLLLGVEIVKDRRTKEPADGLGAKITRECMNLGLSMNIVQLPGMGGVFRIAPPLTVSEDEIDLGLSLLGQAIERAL

Compound | induction of decarboxylase specific activity after amino acid addition (in words) [2] | also measured
CC[C@@](C)(N)C(=O)O [R-Isovaline] | – | Km [1]: 1 mM
CCC(C)(N)C(=O)O (racemic) [racemic isovaline, isovaline (2-ethylalanine)] | immediate and rapid increase in decarboxylase specific activity | –
C[C@H](N)C(=O)O [L-Alanine] | no decarboxylase production | –
CC[C@](C)(N)C(=O)O [S-Isovaline] | – | Km [1]: 25 mM
C[C@@H](N)C(=O)O [D-Alanine] | no decarboxylase production | –
CC(C)(N)C(=O)O [2-Methylalanine] | immediate and rapid increase in decarboxylase specific activity | effect on repressor binding to operators (gel shift, in words) [3]: releases O1, but not O2, binding
NC1(C(=O)O)CCCC1 [1-Aminocyclopentane carboxylic acid] | – | induction of decarboxylase (in words) [4]: induced an intermediate level
